The text below walks through data of US20110098219A1, “System for Curing Hepatic Cancer with Leptin” (KAOHSIUNG MEDICAL UNIVERSITY, priority 2009, published 2011).

Data set [1] concerns cleaved caspase 3, cleaved caspase 7 and cleaved PARP. The experiment in a line: Western blotting of apoptosis-related proteins. In kind it is cell-based. Particulars: 24 hours. As for the experimental part:
Please refer to FIG. 7, which is a view showing effect of MPA+leptin on related proteins for apoptosis. As shown in the figure, through analysis on liver cancer cells after applied with MPA+leptin for 24 hours, observation is done with a focus on changes of their related proteins for apoptosis. When different doses of MPA are combined with different doses of leptin for treatment for 24 hours, cellular proteins of anti-cleaved caspase 3, anti-cleaved caspase 7 and anti-cleaved Poly-ADP-ribose-polymerase (PARP) are processed with western blotting.
A general note: A western blot detects proteins with antibodies after separation by electrophoresis.

Data set [2] has as its system liver cancer patients. The conditions noted are these: prior researches, FIG. 19B; P value 0.171; cited from earlier work.
In data set [3] the test system is liver cancer cells (hepatocellular carcinoma cell line). Nature of the data set: XTT assay, growth of liver cancer cells. In kind it is cell-based. As to the method:
Please refer to FIG. 2, which is a view showing leptin's effect on growth of liver cancer cells. As shown in the figure, for acquiring effect of leptin on liver cancer cells, the preferred embodiment uses leptin having different doses, where the high-dose leptin has 100 nano-grams (ng) and the low-dose leptin has 10 ng. The 10 ng leptin is conformed to the physiological concentration of normal human body for observing effect of leptin on the cells. In the other hand, the 100 ng leptin is used to show whether a higher levels of leptin obtains a higher effect on the cells.
Please refer to FIG. 3, which is a view showing MPA's effect on growth of liver cancer cells. As shown in the figure, the preferred embodiment applies MPA having different doses to liver cancer cells.
Please refer to FIG. 4, which is a view showing effect of MPA+leptin on growth of liver cancer cells. As shown in the figure, the preferred embodiment applies MPA combined with leptin to liver cancer cells, where MPA has different doses and leptin has different doses.
Please refer to FIG. 9, which is a view showing reduced effect of MPA+leptin by suppressing leptin receptor expression. As shown in the figure, a 20 nano-moles (nM) of leptin receptor, siRNA, is transferred to cells to be cultured a day and is cultured in a serum-free medium for the next day. Then, the cells are processed with MPA+leptin for 24 hours to be analyzed through XTT assay. […] Thus, it is confirmed that leptin enhances MPA's suppression on the cells through the leptin receptor.
Please refer to FIG. 10A and FIG. 10B, which are views showing apoptosis of cells on increasing expression of leptin receptor and expression of progesterone receptor respectively. As shown in the figures, the preferred embodiment makes ob-Rb plasmid transfected to cells to be cultured a day and is cultured in a serum-free medium for the next day. Then, the cells are processed with MPA+leptin for 24 hours to be analyzed through XTT assay. […] Besides, the long-form Ob-R enhances expression of the progesterone receptor. Again, the preferred embodiment makes PgR plasmid transfected to cells to be cultured a day and is cultured in a serum-free medium for the next day. Then, the cells are processed with MPA+leptin for 24 hours to be analyzed through XTT assay.
Please refer to FIG. 15A to FIG. 16B, which are views showing cells containing very much leptin within; suppressed growth of the cells by using MPA; and STAT3- and MAPK-signal paths of the cells after MPA is applied. As shown in the figures, while leptin is added from outside in state 13 to suppress liver cancer cells with MPA+leptin, the preferred embodiment here transfers expression plasmid of leptin (pcLeptin) to liver cancer cells to be cultured for a day; and a serum-free medium is used for the next day. Then, after the cells are processed with 10^−4M MPA for 24 hours, cell growth is analyzed through XTT assay. In FIG. 15A, leptin gene is transferred to cells for a short time for obtaining very much leptin within the cells by themselves. After applying MPA to the cells for 24 hours, it is confirmed that MPA's suppression on liver cancer cells is enhanced by a lot of leptin self-generated within the cells. Moreover, after obtaining a lot of leptin, medium is collected for immunoprecipitation and further western blotting. […] Then, after the cells are processed with 10^−4 M MPA for 24 hours, JAK/STAT-related proteins are analyzed through western blotting.
For orientation: Tetrazolium dyes change colour on reduction, which living cells bring about.

The subject of data set [4] is STAT- and MAPK-related signal paths. The experiment in a line: Protein expression of STAT- and MAPK-related signal paths in normal liver cell line. It counts as cell-based. As to the method: (§1) Please refer to FIG. 17A to FIG. 18B, which are views showing epithelial cell line of normal liver treated with MPA+leptin for 24 hours and 48 hours respectively; and views showing STAT3- and MAPK-related signal paths after treating cell line of normal liver with MPA+leptin. As shown in the figures, after epithelial cell line of normal liver (THLE-3) is applied with MPA+leptin for […], MPA+leptin's effect on cell growth (i.e. survival rate) is analyzed through XTT assay. […] Besides, in FIG. 18A and FIG. 18B, protein expressions for STAT- and MAPK-related signal paths are analyzed.

Data set [5] has as its system epithelial cell line of normal liver (THLE-3). Nature of the data set: XTT assay, survival of normal liver epithelial cell line. The conditions noted are these: THLE-3, FIG. 17A. In kind it is cell-based. As for the experimental part:
as §1

Data set [6] has as its system liver cancer patients. Nature of the data set: Survival of liver cancer patients treated with MPA after surgery. It counts as in vivo, human. The conditions noted are these: P value 0.008. The source says: In ‘in vitro’ studies and clinical experiments, leptin and MPA are found to have obvious effect on suppressing liver cancer cells and improving patient's survival rate. Thus, the therapeutic drug is formed by combining MAP with leptin to cure liver cancer patients, where the physiological concentration of leptin in a normal human body is almost able to enhance the treatment effect of MPA. MPA is used for treatment in the present invention, where, for obtaining a better effect, leptin is directly combined with MPA or leptin is obtained by increasing the physiological concentration of leptin in the patient at first.
Consequently, the leptin expression can be taken as an index for effectiveness of the hormone therapy (i.e. MPA) after the surgery; and, the survival time of the liver cancer patients can be maintained or even prolonged.

With `CC(=O)O[C@]1(C(C)=O)CC[C@H]2[C@@H]3C[C@H](C)C4=CC(=O)CC[C@]4(C)[C@H]3CC[C@@]21C` [MPA, medroxyprogesterone acetate], the “activation of cleaved caspase 3/7 and cleaved PARP” value in data set [1] is “obviously activated”. Besides, the “association of patient's survival rate with MPA treatment after surgery” value in data set [2] was “did not find significant association”. Besides, in data set [3] (cells transfected with pcLeptin, 10^-4 M MPA, 24 hours), the “MPA's suppression on liver cancer cells” value is “enhanced”. The “suppressive effect on liver cancer cells” value is given as “obvious suppressive effect” in data set [3] (high-dose MPA 10^-4 M, 24 hours); “the effect is enhanced” in data set [3] (high-dose MPA 10^-4 M, 48 hours); “does not have obvious suppressive effect” in data set [3] (low-dose MPA 10^-6 M, 24 hours or 48 hours). Moreover, in data set [4], the “effect on STAT- and MAPK-related signal proteins” value is reported as “no obvious effect”. In data set [5], the “effect on survival rate of, and poisoning of, normal liver epithelial cells” value is reported as “no obvious effect”. Further, the “survival time, patients with higher versus lower leptin expression” value in data set [6] is reported as “longer survival time”.
